In patent publication US11234420B2, “Method for constructing PD-1 gene modified humanized animal model and use thereof” (priority 2016, dated 2022):
Values joined by “and” are separate entries in the source; they are usually repeats but may differ in a detail not shown here. Identical values can stand only once. “Also recorded” adds a separate entry of the source.

Legend:
Type in all cases: in vivo
[1] = test system: mouse colon cancer cells MC38-hPDL1; assay: Combined use of Cisplatin with Keytruda or Tecentriq (Example 11), MC38-hPDL1 tumors in B-hPD-1 mice; conditions: for Tumor volume Day 8: Day 8, group division, Cisplatin 10 mg/kg intravenous once, Keytruda 0.1 mg/kg i.p. once per 3 days x6, Tecentriq 1 mg/kg i.p. once per 2 days x8; for Tumor volume Day 18 / Tumor volume Day 25: doses as Table 9 (Cisplatin 10, Keytruda 0.1, Tecentriq 1 mg/kg); for Tumor volume Day 25: Day 25, end-point; for Tumor free situation: end-point; for weight change compared among groups: mouse, in vivo
Experimental: B-hPD-1 homozygous mice (4-6 weeks old) were taken, 5×10^5 mouse colon cancer cells MC38-hPDL1 were subcutaneously inoculated at right side (the same as Example 10). When the tumor volume was about 100 mm^3, the mice were randomly divided into 6 control groups or treatment groups (n=7/group). For the treatment group, one or two of the above 3 drugs were randomly injected, the dosages were 0.1-10 mg/kg, and a blank solvent was injected for the control group. The tumor volume was measured and the mice were weighed twice a week. Moreover, euthanasia was performed when the tumor volume of a single mouse reached 3000 mm^3.

[2] = test system: mouse colon cancer cells MC38; assay: Keytruda antibody efficacy pre-experiment (Example 10, Experiment 1), MC38 tumors in B-hPD-1 mice
Experimental: (§1) B-hPD-1 homozygous mice (4-6 weeks old) were taken, mouse colon cancer cells MC38 or modified MC38-hPDL1 (i.e., PD-L1 gene humanized MC38 cells) were subcutaneously inoculated. When the tumor volume was about 100 mm^3, the mice were randomly divided into a control group or a treatment group. For the treatment group, one of the above 2 antibodies was randomly selected and administered at different dosages (0.3-25 mg/kg), and the same volume of a blank solvent was injected for the control group. The tumor volume was measured twice a week and the body weight were measured for each mouse. Moreover, euthanasia was performed when the tumor volume of a single mouse reached 3000 mm^3. The specific experiment scheme was as follows:
Experiment 1 Keytruda antibody efficacy pre-experiment (n=6/group): after subcutaneous inoculation of MC38 cells to mice (5×10^5/100 μL PBS), the anti-human PD-1 antibody Keytruda was administered to the treatment group at 25 mg/kg through intraperitoneal injection, and the same volume of a blank solvent was injected for the control group; the administration frequency was one administration per 3 days for a total of 6 administrations;

[3] = test system: mouse colon cancer cells MC38; assay: Keytruda antibody efficacy at different dosages (Example 10, Experiment 2), MC38 tumors in B-hPD-1 mice; conditions: for Tumor volume Day 8: once per 3 days x6, Day 8, group division; for Tumor volume Day 32: Day 32, end-point; for Survival situation / Tumor free situation: end-point
Experimental: as §1
Experiment 2 Keytruda antibody efficacy experiments at different dosages: after subcutaneous inoculation of MC38 cells to mice (5×10^5/100 μL PBS), the anti-human PD-1 antibody Keytruda was administered to the treatment group (n=6/group) through intraperitoneal injection at different dosages (0.3-10 mg/kg), and the same volume of a blank solvent was injected for the control group (n=10/group); the administration frequency was one administration per 3 days for a total of 6 administrations;

[4] = test system: modified mouse colon cancer cells MC38-hPDL1; assay: Tecentriq antibody efficacy at different dosages (Example 10, Experiment 4), MC38-hPDL1 tumors in B-hPD-1 mice; conditions: for Tumor volume Day 8: once per 2 days x8, Day 8, group division; for Tumor volume Day 33: Day 33, end-point; for Survival situation / Tumor free situation: end-point
Experimental: as §1
Experiment 4 Tecentriq antibody efficacy experiments at different dosages (n=5/group): subcutaneous inoculation of MC38-PDL1 (2×10^5/100 μL PBS), the […] Tecentriq was administered to the treatment group through intraperitoneal injection at 1-10 mg/kg, and the same volume of a blank solvent was injected for the control group; the administration frequency was one administration per 2 days for a total of 8 administrations;

[5] = test system: modified mouse colon cancer cells MC38-hPDL1; assay: Tecentriq antibody efficacy pre-experiment (Example 10, Experiment 3), MC38-hPDL1 tumors in B-hPD-1 mice
Experimental: as §1
Experiment 3 Tecentriq antibody efficacy pre-experiment (n=7/group): subcutaneous inoculation of MC38-PDL1 (5×10^5/100 μL PBS), the […] Tecentriq was administered to the treatment group at 3 mg/kg through intraperitoneal injection, and the same volume of a blank solvent was injected for the control group; the administration frequency was one administration per week for a total of 2 weeks;

[6] = test system: mouse colon cancer cells MC38-hPDL1; assay: Screening anti-human PD-L1 antibodies (Example 12, Experiment 1), MC38-hPDL1 tumors in B-hPD-1 mice
Experimental: Experiment 1: B-hPD-1 homozygous mice (4-6 weeks old) were taken, 5×10^5 mouse colon cancer cells MC38-hPDL1 were subcutaneously inoculated at right side (the same as Example 10). When the tumor volume was about 100 mm^3, the mice were randomly divided into the control group or treatment groups (n=5/group). For the treatment group, the positive control Tecentriq or one of two anti-human PD-L1 antibodies was randomly selected, all dosages were 3 mg/kg, and a blank solvent was injected for the control group. The administration manner was intraperitoneal injection, once per 2 days for a total of 8 times. The tumor volume was measured twice a week. Moreover, euthanasia was performed when the tumor volume of a single mouse reached 3000 mm^3.

N.N.[Cl][Pt][Cl] [Cisplatin]
Tumor volume Day 8 [1]: 98 ± 24 mm^3 | Tumor volume Day 18 [1]: 401 ± 249 mm^3 | Tumor volume Day 25 [1]: 612±510 mm^3 | TGITV % ([1]; doses as Table 9): 68.2% | tumor volume compared with control or single-drug groups ([1]; doses as Table 9, in words): has certain tumor inhibitory effect | Tumor free situation ([1]; doses as Table 9): 0/5 | weight change compared among groups [1]: no significant difference in average weight increase | mice died ([1]; n=7/group, by experiment end-point): 2

Keytruda: humanized monoclonal antibody from Merck & Co.; human PD-1 antibody
Tumor volume Day 6 ([2]; 25 mg/kg intraperitoneal, once per 3 days, 6 administrations, Day 6, group division): 169 ± 24 mm3 | Tumor volume Day 18 ([2]; 25 mg/kg intraperitoneal, once per 3 days, 6 administrations, Day 18): 302 ± 86 mm3 | Tumor volume Day 26 ([2]; 25 mg/kg intraperitoneal, once per 3 days, 6 administrations, Day 26, end-point): 111±77 mm3 | TGITV % ([2]; 25 mg/kg, Tumor Growth Inhibition Value): 102% | Survival situation ([2]; 25 mg/kg, end-point Day 26): 100% | Tumor free situation ([2]; 25 mg/kg, end-point Day 26, tumor-free mice/mice): 2 of the 6 and 2/6 | average tumor volume compared with control group ([2]; 25 mg/kg, in words): tumor volume obviously smaller than that of the control group; also recorded: obviously smaller than that of the G1 control group | toxicity on the animals ([2]; 25 mg/kg, in words): does not have obvious toxicity on the animals | Tumor volume Day 8 [1]: 98 ± 30 mm^3 | Tumor volume Day 18 [1]: 606 ± 247 mm^3 | Tumor volume Day 25 [1]: 1267±619 mm^3 | TGITV % ([1]; doses as Table 9): 27.7% | Tumor free situation ([1]; doses as Table 9): 0/7 | weight change compared among groups [1]: no significant difference in average weight increase | TGITV % ([3]; 0.3 mg/kg): 78.2% | Tumor volume Day 8 ([3]; 0.3 mg/kg i.p.): 113 ± 28 mm^3 | Tumor volume Day 22 ([3]; 0.3 mg/kg): 115 ± 116 mm^3 | Tumor volume Day 32 ([3]; 0.3 mg/kg): 437±515 mm^3 | Survival situation ([3]; 0.3 mg/kg): 6/6 | Tumor free situation ([3]; 0.3 mg/kg): 1/6 | TGITV % ([3]; 1 mg/kg): 94.0% | Tumor volume Day 8 ([3]; 1 mg/kg i.p.): 112 ± 27 mm^3 | Tumor volume Day 22 ([3]; 1 mg/kg): 89 ± 86 mm^3 | Tumor volume Day 32 ([3]; 1 mg/kg): 201±186 mm^3 | Survival situation ([3]; 1 mg/kg): 6/6 | Tumor free situation ([3]; 1 mg/kg): 2/6 | TGITV % ([3]; 3 mg/kg): 89.0% | Tumor volume Day 8 ([3]; 3 mg/kg i.p.): 113 ± 25 mm^3 | Tumor volume Day 22 ([3]; 3 mg/kg): 88 ± 94 mm^3 | Tumor volume Day 32 ([3]; 3 mg/kg): 277±397 mm^3 | Survival situation ([3]; 3 mg/kg): 6/6 | Tumor free situation ([3]; 3 mg/kg): 2/6 | TGITV % ([3]; 10 mg/kg): 92.4% | Tumor volume Day 8 ([3]; 10 mg/kg i.p.): 110 ± 28 mm^3 | Tumor volume Day 22 ([3]; 10 mg/kg): 117 ± 111 mm^3 | Tumor volume Day 32 ([3]; 10 mg/kg): 223±270 mm^3 | Survival situation ([3]; 10 mg/kg): 6/6 | Tumor free situation ([3]; 10 mg/kg): 2/6 | average tumor volume compared with control group ([3]; 0.3, 1, 3 and 10 mg/kg, in words): tumor volume obviously smaller than that of the control group; also recorded: obviously smaller than that of the G1 control group

Tecentriq: fully humanized monoclonal antibody from Genentech under Roche; human PD-L1 antibody
TGITV % ([4]; 1 mg/kg): 61.2% | Tumor volume Day 8 ([4]; 1 mg/kg i.p.): 144 ± 31 mm^3 | Tumor volume Day 22 ([4]; 1 mg/kg): 506 ± 289 mm^3 | Tumor volume Day 33 ([4]; 1 mg/kg): 1044±432 mm^3 | Survival situation ([4]; 1 mg/kg): 5/5 | Tumor free situation ([4]; 1 mg/kg): 0/5 | TGITV % ([4]; 3 mg/kg): 93.7% | Tumor volume Day 8 ([4]; 3 mg/kg i.p.): 147 ± 38 mm^3 | Tumor volume Day 22 ([4]; 3 mg/kg): 418 ± 268 mm^3 | Tumor volume Day 33 ([4]; 3 mg/kg): 1028±963 mm^3 | Survival situation ([4]; 3 mg/kg): 5/5 | Tumor free situation ([4]; 3 mg/kg): 0/5 | TGITV % ([4]; 10 mg/kg): 97.2% | Tumor volume Day 8 ([4]; 10 mg/kg i.p.): 153 ± 62 mm^3 | Tumor volume Day 22 ([4]; 10 mg/kg): 68 ± 75 mm^3 | Tumor volume Day 33 ([4]; 10 mg/kg): 219±326 mm^3 | Survival situation ([4]; 10 mg/kg): 5/5 | Tumor free situation ([4]; 10 mg/kg): 3/5 | average tumor volume compared with control group ([4]; 1-10 mg/kg, in words): tumor volume obviously smaller than that of the control group; also recorded: obviously smaller than that of the G1 control group | Tumor volume Day 8 [1]: 98 ± 26 mm^3 | Tumor volume Day 18 [1]: 688 ± 409 mm^3 | Tumor volume Day 25 [1]: 1234±977 mm^3 | TGITV % ([1]; doses as Table 9): 29.8% | Tumor free situation ([1]; doses as Table 9): 0/7 | weight change compared among groups [1]: no significant difference in average weight increase | TGITV % ([5]; 3 mg/kg): 79.7% | Tumor volume Day 6 ([5]; 3 mg/kg intraperitoneal, once per week, 2 weeks, Day 6, group division): 88 ± 8 mm3 | Tumor volume Day 17 ([5]; 3 mg/kg, Day 17): 208 ± 72 mm3 | Tumor volume Day 20 ([5]; 3 mg/kg, Day 20, end-point): 237±89 mm3 | Survival situation ([5]; 3 mg/kg, end-point): 7/7 | Tumor free situation ([5]; 3 mg/kg, end-point): no mouse cured in the treatment group and 0/7 | average tumor volume compared with control group ([5]; 3 mg/kg, in words): tumor volume obviously smaller than that of the control group | toxicity on the animals ([5]; 3 mg/kg, in words): does not have obvious toxicity on the animals | TGITV % ([6]; 3 mg/kg): 112.2% | Tumor volume Day 10 ([6]; 3 mg/kg i.p., once per 2 days x8, Day 10, group division): 111 ± 25 mm^3 | tumor volume / therapeutic effect compared with control and Tecentriq ([6]; 3 mg/kg, same dosage and frequency, in words): significant difference in the volume of tumors between G2 or G3 and the control group (G1) | Tumor volume Day 20 ([6]; 3 mg/kg, Day 20): 60 ± 70 mm^3 | Tumor volume Day 27 ([6]; 3 mg/kg, Day 27, end-point): 75±113 mm^3 | Survival situation ([6]; 3 mg/kg, end-point): 5/5 | Tumor free situation ([6]; 3 mg/kg, end-point): 0/5 | animal weight / tolerance compared with control group ([6]; 3 mg/kg, in words): no significant difference in average weight increase
